Laboratory results from article PMC8610590 (Journal of Virology, 2021).

Legend:
[1] = tested on: SARS-CoV-2 South African variant (linage: B.1.351); assay: microbe, parasite or virus in culture; format: cell-based; settings: Severe acute respiratory syndrome coronavirus 2, Calu-3, read-out: IC50, inhibition of SARS-CoV-2 replication
[2] = tested on: SARS-CoV-2 Scotland variant (linage: B.1.222); assay: microbe, parasite or virus in culture; format: cell-based; settings: Severe acute respiratory syndrome coronavirus 2, Calu-3, read-out: IC50, inhibition of SARS-CoV-2 replication

Structure (SMILES)	IC50 [1]	IC50 [2]
CN1C(=O)c2ccccc2[S+]([O-])c2cc([N+](=O)[O-])ccc2S1(=O)=O (stereo not shown) [MU-UNMC-1, 6-methyl-2-nitrodibenzo[d,g][1,6,2]dithiazocin-7(6H)-one 5,5,12-trioxide]	9.27 µM	2.64 µM
O=C1Nc2cc(C(F)(F)F)ccc2Oc2ccsc21 [MU-UNMC-2, 7-(trifluoromethyl) benzo[b]thieno[2,3-f][1,4]oxazepin-10(9H)-one]	3 µM	1.39 µM
